# Measurements published in patent US8536307B2, “Anticalins” (Pieris AG, priority 1997, dated 2013).
# How the values were obtained:
# [1] = target: T1, anticalin FluA, mutein of Pieris brassicae bilin-binding protein (Bbp): Asn34Ser, Ser35Pro, Val36Asn, Glu37Gly, Asn58Arg, His60Asp, Ile69Met, Leu88Arg, Tyr90Val (Pieris brassicae, UniProt P09464, E111K/E52G/F142H/H75D/I84M/K102S/K110R/K131R/K150M/L103R/N112T/N16D/N36Q/N49S/N73R/Q140W/S50P/V108Y/V51N/Y105V/Y129S); conditions: fluorescence titration, excitation 280 nm, emission 340 nm, 1 μM anticalin, PBS with 1 mM EDTA, pH 7.4, 25° C.
# [2] = target: anticalin FluB, mutein of Pieris brassicae bilin-binding protein (Bbp): Asn34Gln, Ser35His, Val36Trp, Glu37Asp, Asn58Arg, His60Arg, Ile69His, Glu70Lys, Leu88Val (Pieris brassicae, UniProt P09464, E52D/E85K/F142H/H75R/I84H/K102S/K110R/K131R/K150M/L103V/N112G/N16D/N36Q/N49Q/N73R/Q140W/S50H/V108R/V51W/Y105R/Y129R); conditions: fluorescence titration, excitation 280 nm, emission 340 nm, 1 μM anticalin, PBS with 1 mM EDTA, pH 7.4, 25° C.
# [3] = target: T1, anticalin FluA, mutein of Pieris brassicae bilin-binding protein (Bbp): Asn34Ser, Ser35Pro, Val36Asn, Glu37Gly, Asn58Arg, His60Asp, Ile69Met, Leu88Arg, Tyr90Val; conditions: fluorescein 1 μM, excitation 490 nm, emission 512 nm, PBS with 1 mM EDTA, pH 7.4, 25° C.
# [4] = target: recombinant Pieris brassicae bilin-binding protein (Bbp), parent (Pieris brassicae, UniProt P09464, K102S/K150M/N16D/N36Q); conditions: control experiment corresponding to that with FluA, excitation 490 nm, emission 512 nm
# Sequence of recombinant Pieris brassicae bilin-binding protein (Bbp), parent (P09464 other isoform, or with tags, fused parts or gaps K102S/K150M/N16D/N36Q): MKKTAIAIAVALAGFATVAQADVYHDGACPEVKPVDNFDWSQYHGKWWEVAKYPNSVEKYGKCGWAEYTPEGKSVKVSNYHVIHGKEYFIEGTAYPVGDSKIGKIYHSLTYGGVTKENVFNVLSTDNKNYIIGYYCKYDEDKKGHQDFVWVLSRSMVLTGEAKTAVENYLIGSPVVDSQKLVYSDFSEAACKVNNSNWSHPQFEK
# T1 sequence (P09464 other isoform, or with tags, fused parts or gaps with the stated changes): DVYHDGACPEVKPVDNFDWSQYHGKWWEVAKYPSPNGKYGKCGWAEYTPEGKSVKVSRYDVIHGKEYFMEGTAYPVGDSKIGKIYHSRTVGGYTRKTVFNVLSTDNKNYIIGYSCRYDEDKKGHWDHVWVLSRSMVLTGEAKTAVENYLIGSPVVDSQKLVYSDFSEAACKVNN
# Sequence of UniProt P09464 (P09464 other isoform, or with tags, fused parts or gaps with the stated changes): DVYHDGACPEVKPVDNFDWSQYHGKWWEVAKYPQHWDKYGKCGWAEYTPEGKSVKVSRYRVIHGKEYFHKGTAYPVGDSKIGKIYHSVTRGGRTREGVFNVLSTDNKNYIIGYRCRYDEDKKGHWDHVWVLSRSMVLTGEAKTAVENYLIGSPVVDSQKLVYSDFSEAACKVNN
Compound,Dissociation constant (Kd) [1] [nM],Dissociation constant (Kd) [2] [µM],Quenching of the fluorescence intensity of fluorescein in the complex [3] [%],Quenching of the fluorescence of fluorescein [4]
"O=C1OC2(c3ccc(O)cc3Oc3cc(O)ccc32)c2ccccc21 [Fluorescein, fluorescein]",118 ± 14,5.73 ± 0.86,99.7±0.3,no comparable fluorescence quenching was found
"Nc1ccc2c(c1)C(=O)OC21c2ccc(O)cc2Oc2cc(O)ccc21 [4-Aminofluorescein, 4-amino-fluorescein]",224 ± 6,2.84 ± 0.3,–,–
"O=C(O)CCCC(=O)Nc1ccc2c(c1)C(=O)OC21c2ccc(O)cc2Oc2cc(O)ccc21 [4-Glutarylamidofluorescein, 4-glutarylamido-fluorescein]",601 ± 16,4.70 ± 0.51,–,–
